Test results as given in patent publication US10334869B2, “Method for increasing concentration of avenanthramides in oats” (HER MAJESTY THE QUEEN IN RIGHT OF CANADA, AS REPRESENTED BY …, priority 2009, dated 2019).
Where two headings read alike, the source gives them in different places.

Experiments:
[1] = tested on: non-dormant oat VAO-22; experiment: CaCl2 in anaerobic steep water, avenanthramide accumulation during false malting of VAO-22; assay type: in vivo; details: for All others / Avenanth A / Avenanth B / Avenanth C / Total Avenanth: four days 30° C., avenanthramide A equivalents
Description: (§1) In a third method, samples (10 μl) were injected into a C18 reversed-phase column (Zorbax Stable™ bond C18, 3.5 μm, 4.6 mm×150 mm) maintained at 30° C. Solvents for HPLC were A: methanol, B: water and C: 0.5M formic acid. The solvent gradient (vol. %) consisted of 45A:45B:10C, linearly increasing to 55A:35B:10C over 24 min, and linearly increasing to 70A:20B:10C over 9 min, then reaching 95A:5C over 3 min and holding for 3 min. The solvent gradient was brought back to original conditions over 3 min, allowed equilibrating for 3 min.
(§2) Individual avenanthramides were quantified by determining the peak areas at 330 nm relative to an external authentic avenanthramide A standard and expressed as avenanthramide A weight equivalents. Total avenanthramides were calculated by summing all the individual avenanthramide quantities calculated as avenanthramide A weight equivalents and expressed as parts per million (ppm) avenanthramide A equivalents on a dry weight basis.
A 1,300 g sample of VAO-22 hulless, hairless, non-dormant oat breeder's seed was used (84% germination rate after four days). The seeds were then heat treated as in Example 5. A 25 g sample was used as a control representing the un-malted seeds and stored at −20° C. until analyzed. The rest of the heat treated material was anaerobically steeped at 35° C. in either 1.0% or 2.0% Ca Cl2.(H2O)2 for 18 hours and air drying in a seed dryer for about four hours. The seeds were then surface sterilized as above and ‘false malted” in the dark at 30° C. in a controlled temperature oven for four days using Petri dishes (150×50 mm). After malting the seeds were removed, dried at room temperature (forced air) for four hours then brought to constant weight by drying at 37° C. for ˜40 hours and stored at −20° C. until analyzed for avenanthramide content by HPLC using the third method described above (μg avenanthramide A equivalents/g dry wt=ppm avenanthramide A), and compared to un-malted material.

[2] = tested on: dormant oat VAO-48; experiment: CaCl2 in anaerobic steep water, avenanthramide accumulation during false malting of VAO-48; assay type: in vivo; details: for All others / Avenanth A / Avenanth B / Avenanth C / Total Avenanth: four days 30° C., avenanthramide A equivalents
Description: as §1, §2
25 g samples of the hulless, hairless, dormant oat VAO-48 was anaerobically steeped in either water or various concentrations of USP-grade CaCl2.(H2O)2 solutions at 35° C. After steeping for 18 hours and air drying in a seed dryer for about four hours, the seeds were surface sterilized as above then ‘false malted” using Petri dishes (150×50 mm) in the dark at 30° C. in a controlled temperature oven for four days. The germination rate in all cases was less than 1% after four days. After malting the seeds were removed, dried at room temperature (forced air) for four hours then brought to constant weight by drying at 37° C. for ˜40 hours and stored at −20° C. until analyzed for avenanthramide content by the third method described above (μg avenanthramide A equivalents/g dry wt=ppm avenanthramide A), and compared to un-malted material.

[3] = tested on: smooth muscle cells; details: about 40 ppm; human; cited from earlier work
[4] = tested on: normal cell lines; details: about 20 to 50 ppm; cited from earlier work
[5] = tested on: smooth muscle cells; details: about 40 ppm; rat; cited from earlier work
[6] = tested on: colonic cancer cell lines; details: about 20 to 50 ppm; cited from earlier work
[7] = tested on: heat treated oats; experiment: germination of heat treated oats incubated with gibberellin; assay type: in vivo, oats (VAO-2); details: 100 ppm gibberellin, 5 days; two-phase dry heated oats

O.O.[Ca+2].[Cl-].[Cl-] [CaCl2, CaCl2.(H2O)2]
avenanthramide B fold over initial value ([1]; 1% CaCl2): 23.4 fold
avenanthramide B increase over initial value ([1]; 1% CaCl2): 2,240%
avenanthramide C fold over initial ([1]; 1% CaCl2): 28.4 fold
avenanthramide C increase over initial ([1]; 1% CaCl2): 2,735%
total avenanthramide fold over initial ([1]; 1% CaCl2): 24.1 fold
total avenanthramide levels relative to initial ([1]; 1% CaCl2): 2,307%
All others ([1]; 1.0% CaCl2 in steeping water): 360.1 ± 2.4 ppm
Avenanth A ([1]; 1.0% CaCl2 in steeping water): 27.0 ± 0.22 ppm
Avenanth B ([1]; 1.0% CaCl2 in steeping water): 79.7 ± 0.26 ppm
Avenanth C ([1]; 1.0% CaCl2 in steeping water): 65.2 ± 0.26 ppm
Total Avenanth ([1]; 1.0% CaCl2 in steeping water): 532.0 ± 3.16 ppm
avenanthramide B fold over initial ([1]; 2% CaCl2): 30.3 fold
avenanthramide B increase over initial value ([1]; 2% CaCl2): 2,930%
avenanthramide C fold over initial ([1]; 2% CaCl2): 43.5 fold
avenanthramide C increase over initial ([1]; 2% CaCl2): 4,252%
total avenanthramide fold over initial ([1]; 2% CaCl2): 31.9 fold
total avenanthramide levels relative to initial ([1]; 2% CaCl2): 3,190%
All others ([1]; 2.0% CaCl2 in steeping water): 461.7 ± 8.8 ppm
Avenanth A ([1]; 2.0% CaCl2 in steeping water): 46.7 ± 0.08 ppm
Avenanth B ([1]; 2.0% CaCl2 in steeping water): 103.0 ± 0.06 ppm
Avenanth C ([1]; 2.0% CaCl2 in steeping water): 100.1 ± 0.38 ppm
Total Avenanth ([1]; 2.0% CaCl2 in steeping water): 711.4 ± 9.32 ppm
All others ([2]; 0.05% CaCl2 in steeping water): 287.3 ± 30.9 ppm
Avenanth A ([2]; 0.05% CaCl2 in steeping water): 37.7 ± 5.6 ppm
Avenanth B ([2]; 0.05% CaCl2 in steeping water): 122.0 ± 14.8 ppm
Avenanth C ([2]; 0.05% CaCl2 in steeping water): 81.5 ± 9.4 ppm
Total Avenanth ([2]; 0.05% CaCl2 in steeping water): 528.4 ± 30.9 ppm
All others ([2]; 0.10% CaCl2 in steeping water): 251.4 ± 10.4 ppm
Avenanth A ([2]; 0.10% CaCl2 in steeping water): 27.2 ± 11.4 ppm
Avenanth B ([2]; 0.10% CaCl2 in steeping water): 113.4 ± 5.8 ppm
Avenanth C ([2]; 0.10% CaCl2 in steeping water): 75.7 ± 4.6 ppm
Total Avenanth ([2]; 0.10% CaCl2 in steeping water): 467.7 ± 32.1 ppm
All others ([2]; 0.50% CaCl2 in steeping water): 400.1 ± 0.3 ppm
Avenanth A ([2]; 0.50% CaCl2 in steeping water): 59.9 ± 1.1 ppm
Avenanth B ([2]; 0.50% CaCl2 in steeping water): 155.3 ± 2.3 ppm
Avenanth C ([2]; 0.50% CaCl2 in steeping water): 126.4 ± 2.8 ppm
Total Avenanth ([2]; 0.50% CaCl2 in steeping water): 741.7 ± 6.5 ppm
overall increase of avenanthramide concentration over un-malted seeds ([2]; 1% Ca+2): about 23.6 fold
All others ([2]; 1.0% CaCl2 in steeping water): 401.1 ± 15.4 ppm
Avenanth A ([2]; 1.0% CaCl2 in steeping water): 68.7 ± 3.3 ppm
Avenanth B ([2]; 1.0% CaCl2 in steeping water): 149.0 ± 8.2 ppm
Avenanth C ([2]; 1.0% CaCl2 in steeping water): 138.1 ± 4.0 ppm
Total Avenanth ([2]; 1.0% CaCl2 in steeping water): 757.0 ± 30.9 ppm
increase of avenanthramide concentration over steeping with no added Ca+2 ([2]; 1% added Ca+2): approximately 1.7 fold

O=C(/C=C/c1ccc(O)c(O)c1)Nc1ccc(O)cc1C(=O)O [avenanthramide C]
nitric oxide production [3]: inhibit
proliferation of smooth muscle cells [3]: inhibit the proliferation
effect on normal cell lines [4]: no effect
nitric oxide production [5]: inhibit
proliferation of smooth muscle cells [5]: inhibit the proliferation
anti-inflammatory activity [6]: anti-inflammatory
anti-proliferative activity [6]: anti-proliferative activity

gibberellin
germination [7]: almost complete restoration of germination
